# Like-named read-outs stand apart in the source and are kept apart here.
# Legend:
# HIV-1 = experiment: microbe, parasite or virus in culture; type: cell-based; conditions: for IC50: Human immunodeficiency virus 1, read-out: IC50 anti-HIV-1 activity; for Anti-HIV activity: piceatannol analogues, pseudotype and MTT assay
# Source text: (§1) Since molecular details of piceatannol interaction with its target(s) are currently not available, we performed a structure-activity relationship (SAR) study with the aim to understand the chemical and pharmacophoric features of piceatannol that are relevant for its anti-HIV activity. Seventeen chemical analogues of piceatannol (molecules 1–17, Figure 6) were designed and retrieved from commercial vendors and from an in-house library of natural products and their derivatives and tested in vitro against HIV-1 entry and HIV-1 infection using the pseudotype and the MTT assay, respectively. […] Besides, the two flavones hispidulin 14 and norartocarpetin 15, and the two styrene derivatives 16 and methyl ferulate 17 were tested.
# [1] = Cytotoxicity of piceatannol analogues
# Source text: as §1
# HIV-1 ADA-M [2] = experiment: microbe, parasite or virus in culture; conditions: Human immunodeficiency virus 1, PBMC, 168 h, read-out: IC50 ADA-M
# [3] = test system: non-B HIV-1 primary clinical isolate #1; experiment: microbe, parasite or virus in culture; conditions: Human immunodeficiency virus 1, PBMC, 168 h, read-out: IC50 Clinical isolate #1
# [4] = test system: non-B HIV-1 primary clinical isolate #2; experiment: microbe, parasite or virus in culture; conditions: Human immunodeficiency virus 1, PBMC, 168 h, read-out: IC50 Clinical isolate #2
# HIV-1 IIIB [5] = experiment: microbe, parasite or virus in culture; conditions: Human immunodeficiency virus 1, IIIB, PBMC, 168 h, read-out: IC50 IIIB
# CCR5 = molecular target: T1, CCR5 (Homo sapiens, UniProt P51681); experiment: Binding competition with anti-CCR5 antibody 2D7; conditions: anti-CCR5 antibody 2D7, U373-CD4-CCR5 cells
# T1 construct: host or cells: U373-CD4-CCR5 cells
# T1 sequence (P51681 whole entry): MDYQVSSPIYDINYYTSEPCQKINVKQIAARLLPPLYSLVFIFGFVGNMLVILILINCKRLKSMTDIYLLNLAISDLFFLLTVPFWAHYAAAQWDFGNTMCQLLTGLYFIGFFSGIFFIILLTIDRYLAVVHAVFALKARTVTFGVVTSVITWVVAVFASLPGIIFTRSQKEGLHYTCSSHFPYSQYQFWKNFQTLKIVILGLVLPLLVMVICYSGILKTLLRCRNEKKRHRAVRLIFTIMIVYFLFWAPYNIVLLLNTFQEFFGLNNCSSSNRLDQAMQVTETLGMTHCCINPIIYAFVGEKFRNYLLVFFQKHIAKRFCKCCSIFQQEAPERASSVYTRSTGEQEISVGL
# Procedure: Binding competition between increasing concentrations of compounds and FITC-conjugated mouse anti-human CD4 clone RPA-4 (Biolegend, Amsterdam, Netherlands), PE-conjugated mouse anti-Human CXCR4 clone 12G5, and PE-conjugated mouse anti-human CCR5 clone 2D7 (BD Pharma, Aalst, Belgium) to U373-CD4-CXCR4 and U373-CD4-CCR5 cells was first tested by flow cytometry (FACSCanto). […] After 1 h of incubation at 4 °C, cells were washed with FACS buffer (1% bovine serum albumin, 0.1% N3Na in PBS, Sigma), and Mean Fluorescence Intensity (MFI) was measured. […] Internalization was stopped after 30 min by addition of NaN3 (0.1%) on ice. Cells were stained with anti-human CXCR4 clone 4G10 (BD, Belgium) or anti-human CCR5 (CD195) clone T21/8, (eBioscience, Asse, Belgium), Near-IR fluorescent reactive dye during 1 h at 4 °C, washed with FACS buffer, and a secondary PE-conjugated goat anti-mouse antibody (Jackson ImmunoResearch, West Grove, PA, USA).
# [6] = test system: pseudotype virus pNL4.3ΔEnvLuc-HXB2; experiment: microbe, parasite or virus in culture; conditions: Human immunodeficiency virus 1, HXB2, read-out: IC50 HIV-1 entry
# HIV-1 fusion = experiment: Fusion assay, HeLa-ENV-Lai with HeLa-P4-CXCR4-LTRLacZ cells; type: cell-based; conditions: Figure 8A
# Procedure: Fusion inhibition was evaluated as previously described. Briefly, HeLa-ENV-Lai cells were pre-incubated with or without drugs for 2 h and added to HeLa-P4-CXCR4-LTRLacZ cells which were placed in a 96-well plate 1 day before. After 24 h, cells were washed with PBS and then incubated with 50 μL containing 0.5% NP-40 (Sigma, Belgium) for 15 min at room temperature. Fifty microliters chlorophenol red-β-D-galactopyranoside (CPRG) reagent (Roche, Sigma-Aldrich, Liège, Belgium) was then added into the plate. After 30 min incubation at room temperature in dark, β−galactosidase was assessed by measuring OD562 of the cells via POLARstar Omega plate reader (BMG Labtech, Ortenberg, Germany).
# [7] = test system: HIV-1 gp120 / CD4 binding; experiment: CD4-gp120 interaction assay (ELISA); conditions: in-house ELISA
# Procedure: Human soluble CD4 (sCD4) was immobilized in a 96-well plate by adding 100 ng sCD4 (R&D Systems, Belgium) in 100 μL PBS per well and incubated at 4 °C. After 24 h, the CD4 coated plate was washed with 1% BSA-PBS and blocked by adding 100μL 5% BSA-PBS per well for 1 h at 4 °C. The coated plate was then washed and incubated with or without drugs for 1 h at 4 °C. After washing, 100 ng HIV-1 gp120 protein (Fitzgerald, Acton, MA, USA) was added into the plate and kept for 1 h at 4 °C. The plate was washed, and anti-HIV-1 gp120 (Aalto Bio Reagents, Dublin, Ireland) (100 ng/100 μL PBS) was added. After 1 h, the plate was washed and anti-sheep HRP (Sigma, Belgium) (100 ng/100 μL PBS) was added. After 1 h incubation at 4 °C, 100 μL o-phenylenediamine dihydrochloride (OPD) (Thermo Fisher, Asse, Belgium) was added and incubated for 20 min in dark. One hundred microliters 0.5M H2SO4 was finally added to stop the reaction. OD492 and OD630 were measured by POLARstart Omega Plate Reader. OD492 − OD630 was calculated.
# [8] = test system: pseudotype virus pNL4.3ΔEnvLuc-HXB2; conditions: multi-dosing time assay, 2 h after spinoculation (post-infection)
# [9] = test system: non-B HIV-1 primary clinical isolate #2; conditions: non-B primary clinical isolate #2, 2 h
# HIV-1 ADA-M [10] = conditions: read-out: IC50 ADA-M; PBMCs, 7 days, P24 ELISA
# HIV-1 IIIB [11] = conditions: read-out: IC50 IIIB; PBMCs, 7 days, P24 ELISA
# [12] = test system: non-B HIV-1 primary clinical isolate #1; conditions: non-B primary clinical isolate #1, 2 h
compound,measurement,setting,value
"COC(=O)/C=C/c1ccc(O)c(OC)c1 [Compound 17, methyl ferulate]",IC50,HIV-1,600000 ± 22000 nM
"O=c1cc(-c2ccc(O)cc2O)oc2cc(O)cc(O)c12 [Compound 15, norartocarpetin]",CC50,[1],> 500000 nM
same,IC50,HIV-1,39000 ± 5000 nM
"Cc1cn([C@H]2C[C@H](N=[N+]=[N-])[C@@H](CO)O2)c(=O)[nH]c1=O [AZT, azidothymidine]",IC50,HIV-1 ADA-M [2],7.31 nM
same,IC50,[3],6.7 nM
same,IC50,[4],> 1000 nM
same,IC50,HIV-1 IIIB [5],7.07 nM
"O=C1Nc2ccc(Cl)cc2[C@@](C#CC2CC2)(C(F)(F)F)O1 [EFV, efavirenz]",IC50,HIV-1 ADA-M [2],0.17 nM
same,IC50,[3],> 10 nM
same,IC50,[4],> 10 nM
same,IC50,HIV-1 IIIB [5],0.1 nM
"CCL5: chemokine C-C motif chemokine ligand 5, positive control for binding CCR5",Inhibition of CCR5 binding,CCR5,inhibited
C[C@@]12OC(=O)C[C@@H]1[C@H]1Oc3c(c(O)cc(O)c3[C@@H]3c4ccc(O)cc4O[C@H](c4ccc(O)cc4)[C@H]3O)C[C@H]1O2 [cassiabrevone],IC50,[6],31000 nM
same,Inhibition of viral fusion,HIV-1 fusion,inhibited viral fusion similarly to CE
same,Inhibition of gp120/CD4 binding,[7],inhibited significantly gp120/CD4 binding activity in a dose-dependent manner
CCCCCCCCCCCCCCCC(=O)O [palmitic acid],IC50,[6],87500 ± 16100 nM
"Cc1nnc(C(=O)NC(C)(C)c2nc(C(=O)NCc3ccc(F)cc3)c(O)c(=O)n2C)o1 [raltegravir, reference compound]",Inhibitory effect when added after infection,[8],inhibited HIV-1 infection
CC1(C)CC[C@]2(C(=O)O)CC[C@]3(C)C(=CC[C@@H]4[C@@]5(C)CC[C@H](O)C(C)(C)[C@@H]5CC[C@]43C)[C@@H]2C1 [oleanolic acid],IC50,[6],34900 ± 9090 nM
enfuvirtide,IC50,[9],1.93 nM
same,IC50,HIV-1 ADA-M [10],0.67 nM
same,IC50,HIV-1 IIIB [11],0.64 nM
same,IC50,[12],8.25 nM
CC(=O)Oc1ccc(/C=C/c2cc(OC(C)=O)cc(OC(C)=O)c2)cc1 [Compound 2],Anti-HIV activity,HIV-1,inactive
CC(C)=CCc1c(O)cc(O)c(CC=C(C)C)c1/C=C/c1ccccc1 [Compound 12],Anti-HIV activity,HIV-1,inactive
COc1cc(/C=C/c2ccc(O)cc2)cc(OC)c1 [Compound 1],Anti-HIV activity,HIV-1,inactive
Oc1ccc([C@H]2Oc3cc(O)ccc3[C@@H](c3c(O)cc(O)c4c3O[C@H](c3ccc(O)cc3)[C@H](O)C4)[C@@H]2O)cc1 [guibourtinidol-(4α→8)-epiafzelechin],IC50,[6],42500 nM
same,Inhibition of viral fusion,HIV-1 fusion,inhibited viral fusion similarly to CE
same,Inhibition of gp120/CD4 binding,[7],not guibourtinidol-(4α→8)-epiafzelechin
O=C1c2c(O)cc(O)cc2OC(c2ccc(O)c(O)c2)C1O (centres unmarked) [taxifolin],IC50,[6],240000 ± 3000 nM
